The values that follow come from ChEMBL document CHEMBL1201862, “PubChem BioAssay data set” (2004).

Test [1] deals with T1, Type-1 angiotensin II receptor (Homo sapiens, UniProt P30556).
T1 sequence (P30556 whole entry): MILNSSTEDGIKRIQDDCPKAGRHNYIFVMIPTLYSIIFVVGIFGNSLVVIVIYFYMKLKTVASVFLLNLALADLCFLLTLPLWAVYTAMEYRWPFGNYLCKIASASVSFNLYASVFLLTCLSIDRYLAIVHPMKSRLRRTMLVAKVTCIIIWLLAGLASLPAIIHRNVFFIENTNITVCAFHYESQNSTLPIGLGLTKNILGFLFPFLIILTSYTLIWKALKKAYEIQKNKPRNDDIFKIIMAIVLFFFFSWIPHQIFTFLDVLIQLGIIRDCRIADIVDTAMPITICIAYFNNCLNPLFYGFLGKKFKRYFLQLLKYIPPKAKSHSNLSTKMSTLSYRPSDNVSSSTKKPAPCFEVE
Description: AT1 receptor antagonists, dose response, selectivity assay for APJ receptor antagonist project, cell-based, uHTS hits (AID 463214).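 Further: antagonist potency against angiotensin II stimulated AT1 response.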 The format is functional.

Test [2] is described as follows: cells. It is filed as functional, cell-based.
Test [3] concerns the target Neurotensin receptor type 1 (Homo sapiens, UniProt P30989). The format is functional.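 Further: Image-based confirmatory dose-response assay measuring agonist activity at NTR1; NTR1-expressing U2OS osteosarcoma cells imaged for beta-arrestin GFP spot formation; agonist potency where compounds increase beta-arrestin recruitment.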
A short description of test [4]: cells. The format is functional, cell-based. The source holds these as a separate data set.
Test [5] in a line: Shn3 3'UTR reporter inhibitors, dose response, cell-based, Clone20 osteoblasts, firefly luciferase, cherry-picked (AID 624132).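 Further: firefly luciferase luminescence from reporter carrying the Shn3 3'UTR in osteoblasts.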 It is filed as functional.
The nature of test [6]: control 3'UTR Renilla luciferase suppression, dose response, counter-screen for Shn3 inhibitor project, cell-based, Clone20-Shn3RL, cherry-picked (AID 624133). It is filed as functional. A general note: A counterscreen serves to expose hits that act by an unwanted route or on another target.
A short description of test [7]: HepG2 cell cytotoxicity, dose response, cytotoxicity control for Shn3 inhibitor project, CellTiter-Glo, cherry-picked (AID 624134). It is filed as functional, cell-based. (In general: In ATP-based viability assays light output follows the ATP content of the culture.)
Test [8] addresses T2, Heat shock factor protein 1 (Mus musculus, UniProt P38532).
T2 sequence (P38532 whole entry): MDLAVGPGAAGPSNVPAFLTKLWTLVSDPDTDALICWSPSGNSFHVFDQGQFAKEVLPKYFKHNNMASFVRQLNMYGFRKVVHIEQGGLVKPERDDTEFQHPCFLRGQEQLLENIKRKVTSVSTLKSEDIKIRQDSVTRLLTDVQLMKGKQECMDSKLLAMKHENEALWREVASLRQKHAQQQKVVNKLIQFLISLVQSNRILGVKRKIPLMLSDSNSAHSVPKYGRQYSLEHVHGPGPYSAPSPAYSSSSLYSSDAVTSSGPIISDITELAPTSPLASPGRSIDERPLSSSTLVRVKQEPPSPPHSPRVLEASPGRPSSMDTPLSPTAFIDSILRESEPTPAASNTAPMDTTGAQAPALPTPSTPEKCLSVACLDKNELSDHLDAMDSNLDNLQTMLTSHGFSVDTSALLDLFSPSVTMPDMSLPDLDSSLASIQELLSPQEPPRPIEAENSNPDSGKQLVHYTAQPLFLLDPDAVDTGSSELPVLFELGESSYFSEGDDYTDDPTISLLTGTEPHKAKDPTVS
Description: inhibition of MG132-induced HSE-luciferase signal, confirmation, cell-based, NIH3T3, luminescence, dose retest (AID 2382).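 Further: NIH3T3 fibroblasts with HSF1-driven luciferase reporter stressed by proteasome inhibitor MG132; luminescence from HSF1-driven luciferase expression after 8 hours of MG132 stress.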 The format is functional.

For another test, the target named is Beta-galactosidase (Escherichia coli, UniProt Q8VNN2). The test can be described thus: PubChem AID 485352. The format is functional.
In test [9] the target is T3, Sentrin-specific protease 7 (Homo sapiens, UniProt Q9BQF6).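 Further: Luminescence-based dose-response confirmation of ultra-high-throughput screening hits, measuring inhibition of SENP7.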
T3 sequence (Q9BQF6 whole entry): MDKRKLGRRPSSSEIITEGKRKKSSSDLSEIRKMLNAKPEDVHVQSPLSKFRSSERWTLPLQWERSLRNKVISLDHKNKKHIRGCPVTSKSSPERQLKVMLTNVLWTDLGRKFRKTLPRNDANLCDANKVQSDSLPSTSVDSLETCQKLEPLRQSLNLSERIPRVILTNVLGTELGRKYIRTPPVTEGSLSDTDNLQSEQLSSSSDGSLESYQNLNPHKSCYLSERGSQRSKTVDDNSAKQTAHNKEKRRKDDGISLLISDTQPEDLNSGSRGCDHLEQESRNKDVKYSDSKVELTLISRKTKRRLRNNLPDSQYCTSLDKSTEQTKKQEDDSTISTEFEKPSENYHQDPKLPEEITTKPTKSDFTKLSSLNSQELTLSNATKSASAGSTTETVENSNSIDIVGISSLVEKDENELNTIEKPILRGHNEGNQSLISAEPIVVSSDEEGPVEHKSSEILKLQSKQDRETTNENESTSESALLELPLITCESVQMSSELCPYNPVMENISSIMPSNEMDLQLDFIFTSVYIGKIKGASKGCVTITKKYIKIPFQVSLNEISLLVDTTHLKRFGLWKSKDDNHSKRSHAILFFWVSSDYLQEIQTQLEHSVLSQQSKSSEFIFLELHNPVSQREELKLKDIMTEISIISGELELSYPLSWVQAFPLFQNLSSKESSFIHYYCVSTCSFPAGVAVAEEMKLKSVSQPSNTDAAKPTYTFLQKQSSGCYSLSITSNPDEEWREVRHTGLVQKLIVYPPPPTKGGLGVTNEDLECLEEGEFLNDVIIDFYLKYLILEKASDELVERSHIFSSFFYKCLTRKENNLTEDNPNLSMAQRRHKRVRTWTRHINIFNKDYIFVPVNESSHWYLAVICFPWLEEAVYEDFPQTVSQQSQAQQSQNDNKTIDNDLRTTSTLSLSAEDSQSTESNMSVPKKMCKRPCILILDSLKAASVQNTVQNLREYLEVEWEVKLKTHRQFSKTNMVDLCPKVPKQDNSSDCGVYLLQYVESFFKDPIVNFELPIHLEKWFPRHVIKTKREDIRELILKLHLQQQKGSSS
It is filed as functional.

Test [10] addresses T4, Sentrin-specific protease 6 (Homo sapiens, UniProt Q9GZR1).
T4 sequence (Q9GZR1 whole entry): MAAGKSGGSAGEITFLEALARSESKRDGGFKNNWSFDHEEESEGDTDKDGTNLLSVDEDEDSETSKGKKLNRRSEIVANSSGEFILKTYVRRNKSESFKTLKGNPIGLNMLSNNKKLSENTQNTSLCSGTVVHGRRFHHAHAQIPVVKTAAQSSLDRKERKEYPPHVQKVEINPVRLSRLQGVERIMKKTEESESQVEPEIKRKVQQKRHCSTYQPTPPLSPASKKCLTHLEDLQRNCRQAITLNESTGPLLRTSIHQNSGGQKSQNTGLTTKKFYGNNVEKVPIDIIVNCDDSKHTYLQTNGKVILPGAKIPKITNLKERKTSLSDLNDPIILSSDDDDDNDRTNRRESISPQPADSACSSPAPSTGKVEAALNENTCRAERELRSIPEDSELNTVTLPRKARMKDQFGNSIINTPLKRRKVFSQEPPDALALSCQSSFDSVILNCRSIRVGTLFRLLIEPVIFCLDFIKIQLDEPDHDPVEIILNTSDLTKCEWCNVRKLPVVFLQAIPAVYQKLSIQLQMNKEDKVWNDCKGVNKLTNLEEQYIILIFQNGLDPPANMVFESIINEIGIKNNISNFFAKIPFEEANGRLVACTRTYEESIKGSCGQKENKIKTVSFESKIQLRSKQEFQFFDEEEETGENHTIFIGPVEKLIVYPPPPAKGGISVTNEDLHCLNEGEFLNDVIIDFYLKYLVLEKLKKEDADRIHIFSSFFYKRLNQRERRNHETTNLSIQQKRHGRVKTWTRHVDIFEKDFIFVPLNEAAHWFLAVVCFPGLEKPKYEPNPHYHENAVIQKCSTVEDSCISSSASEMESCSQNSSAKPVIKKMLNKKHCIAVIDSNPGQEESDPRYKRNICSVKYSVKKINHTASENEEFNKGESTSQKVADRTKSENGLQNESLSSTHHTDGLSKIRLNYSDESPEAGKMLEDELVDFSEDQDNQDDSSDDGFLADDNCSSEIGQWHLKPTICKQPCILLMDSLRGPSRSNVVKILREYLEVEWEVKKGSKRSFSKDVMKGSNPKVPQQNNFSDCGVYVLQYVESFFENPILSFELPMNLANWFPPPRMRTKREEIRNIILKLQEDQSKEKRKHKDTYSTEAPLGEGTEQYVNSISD
The format is functional.

The target in the next test is T5, Protein skinhead-1 (Caenorhabditis elegans, UniProt P34707).
T5 sequence (P34707 whole entry): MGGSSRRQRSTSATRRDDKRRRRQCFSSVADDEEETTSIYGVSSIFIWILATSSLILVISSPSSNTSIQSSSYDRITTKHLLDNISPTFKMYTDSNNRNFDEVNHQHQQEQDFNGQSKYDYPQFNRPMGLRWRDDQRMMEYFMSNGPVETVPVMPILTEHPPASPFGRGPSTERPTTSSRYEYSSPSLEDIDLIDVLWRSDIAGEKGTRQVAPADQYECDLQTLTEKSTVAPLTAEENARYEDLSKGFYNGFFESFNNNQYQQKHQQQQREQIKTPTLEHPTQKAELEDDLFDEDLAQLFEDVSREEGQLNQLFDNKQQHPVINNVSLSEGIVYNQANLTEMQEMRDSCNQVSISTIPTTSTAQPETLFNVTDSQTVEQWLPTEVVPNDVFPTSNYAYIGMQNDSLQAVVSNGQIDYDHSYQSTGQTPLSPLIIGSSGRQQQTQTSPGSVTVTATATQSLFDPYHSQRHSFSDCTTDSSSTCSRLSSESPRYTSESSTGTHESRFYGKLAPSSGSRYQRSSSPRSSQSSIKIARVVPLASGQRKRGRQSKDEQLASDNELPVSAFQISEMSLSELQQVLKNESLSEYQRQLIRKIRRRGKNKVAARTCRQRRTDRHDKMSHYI
It is filed as functional.

Test [11] addresses Metabotropic glutamate receptor 4 (Rattus norvegicus, UniProt P31423). The test can be described thus: Modulation of the Metabotropic Glutamate Receptor mGluR4: Rat PAM Potency. [Related pubchem assays (depositor defined):AID2437, AID2807]. It is filed as functional.
Test [12] deals with Metabotropic glutamate receptor 4 (Homo sapiens, UniProt Q14833). The test can be described thus: Modulation of the Metabotropic Glutamate Receptor mGluR4: Potency at human mGluR4. Modulation of intracellular Ca2+ using Fluo-4, AM, in CHO expressing recombinant receptor [Related pubchem assays (depositor defined):AID2437, AID2807]. The format is functional, cell-based.
For a further test, the target named is T6, Caspase-3 (Homo sapiens, UniProt P42574).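 Further: Dose-response selectivity test against caspase-3 for candidate inhibitors of sentrin-specific proteases (SENPs).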
T6 sequence (P42574 whole entry): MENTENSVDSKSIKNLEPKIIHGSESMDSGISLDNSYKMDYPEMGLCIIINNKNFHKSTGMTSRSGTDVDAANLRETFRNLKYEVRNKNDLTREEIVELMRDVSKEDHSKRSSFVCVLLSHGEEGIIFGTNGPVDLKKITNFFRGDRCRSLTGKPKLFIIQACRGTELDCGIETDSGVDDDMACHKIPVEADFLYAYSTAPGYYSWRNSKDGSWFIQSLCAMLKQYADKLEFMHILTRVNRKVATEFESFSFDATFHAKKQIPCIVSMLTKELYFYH
The format is functional.

The target of test [13] is T7, Sentrin-specific protease 8 (Homo sapiens, UniProt Q96LD8).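 Further: luminescence read-out of SENP8 inhibition, dose-response confirmation following an ultra-high-throughput screen.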
T7 sequence (Q96LD8 whole entry): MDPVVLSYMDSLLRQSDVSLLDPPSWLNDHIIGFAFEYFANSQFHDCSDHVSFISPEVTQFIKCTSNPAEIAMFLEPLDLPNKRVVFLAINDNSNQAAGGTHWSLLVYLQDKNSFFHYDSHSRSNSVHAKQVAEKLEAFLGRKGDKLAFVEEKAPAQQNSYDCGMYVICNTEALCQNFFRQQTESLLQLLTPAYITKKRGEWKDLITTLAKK
It is filed as functional.

As usually defined, the IC50 is the concentration needed to halve the response being measured. One may read the EC50 as the concentration at which the effect is half-maximal. As usually defined, the AC50 is the midpoint of the concentration-response curve, whichever way the signal moves.

Active and inactive are the calls of the source. Bounds are passed on as bounds.

Beta-galactosidase, sequence (Q8VNN2 whole entry): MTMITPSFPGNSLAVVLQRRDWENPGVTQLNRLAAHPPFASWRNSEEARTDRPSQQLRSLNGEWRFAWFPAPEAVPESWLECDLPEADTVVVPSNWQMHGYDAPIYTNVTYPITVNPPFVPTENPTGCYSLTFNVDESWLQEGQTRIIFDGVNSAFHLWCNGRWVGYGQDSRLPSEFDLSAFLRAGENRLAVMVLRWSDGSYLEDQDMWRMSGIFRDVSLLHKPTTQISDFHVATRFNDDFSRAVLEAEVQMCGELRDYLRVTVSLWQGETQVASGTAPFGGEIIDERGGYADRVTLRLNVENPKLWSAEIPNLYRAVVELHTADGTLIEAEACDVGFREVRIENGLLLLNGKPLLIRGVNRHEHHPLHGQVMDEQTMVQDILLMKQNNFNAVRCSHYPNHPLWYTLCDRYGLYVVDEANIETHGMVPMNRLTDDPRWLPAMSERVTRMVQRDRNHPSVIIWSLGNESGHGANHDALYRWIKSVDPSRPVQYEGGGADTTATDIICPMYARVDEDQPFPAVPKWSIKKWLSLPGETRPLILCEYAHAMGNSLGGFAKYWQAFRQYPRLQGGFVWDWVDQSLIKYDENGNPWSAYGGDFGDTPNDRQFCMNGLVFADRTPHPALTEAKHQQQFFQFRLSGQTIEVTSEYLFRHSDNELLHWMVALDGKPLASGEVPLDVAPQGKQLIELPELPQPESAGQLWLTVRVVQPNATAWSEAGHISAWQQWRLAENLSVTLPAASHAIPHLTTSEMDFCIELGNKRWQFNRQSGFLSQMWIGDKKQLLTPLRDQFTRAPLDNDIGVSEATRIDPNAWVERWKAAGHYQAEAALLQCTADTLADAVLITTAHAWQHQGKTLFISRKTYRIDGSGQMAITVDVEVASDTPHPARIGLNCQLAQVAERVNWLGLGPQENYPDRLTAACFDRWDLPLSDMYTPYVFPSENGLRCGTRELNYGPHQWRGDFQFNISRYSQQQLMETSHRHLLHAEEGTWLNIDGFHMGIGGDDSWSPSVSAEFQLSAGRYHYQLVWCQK
Metabotropic glutamate receptor 4 (Homo sapiens, UniProt Q14833), sequence (Q14833 whole entry): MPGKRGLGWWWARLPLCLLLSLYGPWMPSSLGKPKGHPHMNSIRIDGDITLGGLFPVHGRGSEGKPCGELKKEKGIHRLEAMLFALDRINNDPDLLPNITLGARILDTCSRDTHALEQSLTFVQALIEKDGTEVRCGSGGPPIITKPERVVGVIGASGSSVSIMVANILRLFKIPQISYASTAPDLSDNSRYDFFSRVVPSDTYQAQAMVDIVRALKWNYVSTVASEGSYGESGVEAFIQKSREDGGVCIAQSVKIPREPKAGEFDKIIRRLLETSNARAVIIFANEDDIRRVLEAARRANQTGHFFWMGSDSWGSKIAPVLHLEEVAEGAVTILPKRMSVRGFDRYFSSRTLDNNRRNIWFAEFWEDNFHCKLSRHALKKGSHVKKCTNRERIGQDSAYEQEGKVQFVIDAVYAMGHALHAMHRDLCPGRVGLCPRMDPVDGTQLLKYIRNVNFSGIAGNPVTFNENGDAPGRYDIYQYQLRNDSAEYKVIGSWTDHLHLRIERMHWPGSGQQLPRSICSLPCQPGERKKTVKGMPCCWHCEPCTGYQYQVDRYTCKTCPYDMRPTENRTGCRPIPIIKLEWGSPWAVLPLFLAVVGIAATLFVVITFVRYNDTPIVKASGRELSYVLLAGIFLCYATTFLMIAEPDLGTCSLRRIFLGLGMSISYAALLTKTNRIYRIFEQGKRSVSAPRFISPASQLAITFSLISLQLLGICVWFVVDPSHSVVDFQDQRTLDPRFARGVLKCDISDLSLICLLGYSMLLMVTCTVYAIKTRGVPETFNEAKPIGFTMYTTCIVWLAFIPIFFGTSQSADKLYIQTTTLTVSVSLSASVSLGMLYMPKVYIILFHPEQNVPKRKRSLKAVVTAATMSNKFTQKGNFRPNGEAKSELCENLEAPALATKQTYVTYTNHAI
Neurotensin receptor type 1, sequence (P30989 whole entry): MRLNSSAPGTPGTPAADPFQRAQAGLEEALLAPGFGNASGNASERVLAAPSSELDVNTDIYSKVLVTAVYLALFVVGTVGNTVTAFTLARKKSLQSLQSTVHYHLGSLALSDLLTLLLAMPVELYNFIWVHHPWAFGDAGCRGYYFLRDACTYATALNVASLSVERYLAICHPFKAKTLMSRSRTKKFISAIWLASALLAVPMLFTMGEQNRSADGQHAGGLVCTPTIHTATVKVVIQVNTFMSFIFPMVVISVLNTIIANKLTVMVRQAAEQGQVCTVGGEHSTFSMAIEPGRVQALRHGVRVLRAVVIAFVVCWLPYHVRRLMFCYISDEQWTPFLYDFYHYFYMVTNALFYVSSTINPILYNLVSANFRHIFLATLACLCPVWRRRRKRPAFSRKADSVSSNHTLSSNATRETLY
Metabotropic glutamate receptor 4 (Rattus norvegicus, UniProt P31423), sequence (P31423 whole entry): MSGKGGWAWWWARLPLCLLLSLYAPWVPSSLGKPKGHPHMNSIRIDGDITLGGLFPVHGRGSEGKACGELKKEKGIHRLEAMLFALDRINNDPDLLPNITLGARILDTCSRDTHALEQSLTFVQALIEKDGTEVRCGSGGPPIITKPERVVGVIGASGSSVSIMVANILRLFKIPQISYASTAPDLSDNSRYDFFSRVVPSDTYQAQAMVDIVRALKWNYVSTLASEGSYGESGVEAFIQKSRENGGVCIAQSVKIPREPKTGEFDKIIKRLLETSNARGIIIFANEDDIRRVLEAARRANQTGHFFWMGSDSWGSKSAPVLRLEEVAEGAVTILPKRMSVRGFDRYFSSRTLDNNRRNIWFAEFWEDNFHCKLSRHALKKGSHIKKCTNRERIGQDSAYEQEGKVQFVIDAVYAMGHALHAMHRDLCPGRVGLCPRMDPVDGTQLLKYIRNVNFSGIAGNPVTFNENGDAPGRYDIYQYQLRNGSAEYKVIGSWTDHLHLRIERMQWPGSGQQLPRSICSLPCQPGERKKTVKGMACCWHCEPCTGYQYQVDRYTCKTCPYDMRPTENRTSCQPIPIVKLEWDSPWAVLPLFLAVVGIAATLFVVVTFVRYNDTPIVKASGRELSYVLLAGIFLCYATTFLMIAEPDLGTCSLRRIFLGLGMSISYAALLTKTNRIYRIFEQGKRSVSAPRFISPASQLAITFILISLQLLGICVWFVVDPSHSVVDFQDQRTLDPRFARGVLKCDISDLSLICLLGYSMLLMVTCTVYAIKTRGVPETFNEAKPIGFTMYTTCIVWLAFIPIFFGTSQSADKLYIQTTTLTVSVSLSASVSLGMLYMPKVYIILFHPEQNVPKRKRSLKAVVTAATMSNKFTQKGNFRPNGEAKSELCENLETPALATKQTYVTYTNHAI

Regarding `CC(=O)OCCCNc1cc(Sc2ccc(C)cc2)c2nonc2c1[N+](=O)[O-]`, in test [1], the IC50 was 1.56 µM (active). Further, the EC50 in “cells [2]” is > 350 µM (not active); in test [3] it was 5.83 µM (active); in “cells [4]”, > 350 µM (not active); in [8], > 195 µM (not active); on Beta-galactosidase, > 40 µM (inactive). The concentration at half-maximal activity (AC50) in test [5] is 1.1 µM (active); in [6], 12.4 µM (active); in [7], > 70 µM (inactive).
Regarding `O=C(Nc1ccc(Cl)c(Cl)c1)c1ccco1`, the IC50 in test [9] was 5.24 µM (active); in [10] it was 18.3 µM (active); on Protein skinhead-1, 24.4 µM (active); on Caspase-3, 17 µM (active); in [13], 21.7 µM (active). In addition, the EC50 was 3.58 µM (active) in test [11] and 4.54 µM (active) in [12].
